Results as given in the supplement of paper PMC6965134.

Test: TIMS collisional cross section (CCS, N2) of the lipid ion; higher = larger ion cross section
Conditions: ionization mode: negative, one isomer drawn
Procedure: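 Lipid extracts of human plasma (NIST SRM 1950), mouse liver or HeLa cells were separated by nanoflow C18 LC (30 min gradient) and analysed by TIMS-PASEF on a timsTOF Pro. Ion mobility was calibrated with the Agilent tuning mix (negative mode ions) and converted to collisional cross sections (Mason–Schamp, N2).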

[1] = sample type: Mouse Liver, ion (formula + adduct): [C40H75O10P-H] 1-
[2] = sample type: Human plasma, ion (formula + adduct): [C47H83O13P-H] 1-
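Further: lipids from MTBE extraction, five replicate injections per sample, 100 ms TIMS ramp spanning 0.6–1.95 Vs/cm², lipid identity assigned from PASEF MS/MS spectra.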

CCCCC/C=C\C/C=C\C/C=C\CCCCCCC(=O)O[C@H](CO/C=C\CCCCCCCCCCCCCC)COP(=O)(O)OCCN [PE P- 16:0@_20:3]
TIMS collisional cross section (sample type: Human plasma, ion (formula + adduct): [C41H76NO7P-H] 1-): 271.2 Å²
TIMS collisional cross section (sample type: Mouse Liver, ion (formula + adduct): [C41H76NO7P-H] 1-): 271.2 Å²

CC/C=C\C/C=C\C/C=C\C/C=C\C/C=C\CCCC(=O)O[C@H](CO/C=C\CCCCCCCCCCCCCC)COP(=O)(O)OCCN [PE P- 16:0@_20:5]
TIMS collisional cross section (sample type: Human plasma, ion (formula + adduct): [C41H72NO7P+AcO] 1-): 283.1 Å²
TIMS collisional cross section (sample type: Human plasma, ion (formula + adduct): [C41H72NO7P-H] 1-): 268.9 Å²

CCCCC/C=C\C/C=C\C/C=C\C/C=C\CCCCCC(=O)O[C@H](CO/C=C\CCCCCCCCCCCCCC)COP(=O)(O)OCCN [PE P- 16:0@_22:4]
TIMS collisional cross section (sample type: Human plasma, ion (formula + adduct): [C43H78NO7P-H] 1-): 276.3 Å²

CC/C=C\C/C=C\C/C=C\C/C=C\C/C=C\C/C=C\CCC(=O)O[C@H](CO/C=C\CCCCCCCCCCCCCC)COP(=O)(O)OCCN [PE P- 16:0@_22:6]
TIMS collisional cross section (sample type: Human plasma, ion (formula + adduct): [C43H74NO7P-H] 1-): 274 Å²
TIMS collisional cross section (sample type: Mouse Liver, ion (formula + adduct): [C43H74NO7P-H] 1-): 274.6 Å²

CCCCC/C=C\C/C=C\C/C=C\C/C=C\CCCC(=O)O[C@H](CO/C=C\CCCCCCCCCCCCCC)COP(=O)(O)OCCN [PE P- 16:0_20:4]
TIMS collisional cross section (sample type: Human plasma, ion (formula + adduct): [C41H74NO7P-H] 1-): 270.1 Å²
TIMS collisional cross section (sample type: Mouse Liver, ion (formula + adduct): [C41H74NO7P-H] 1-): 270.1 Å²

CCCCC/C=C\C/C=C\CCCCCCCC(=O)O[C@H](CO/C=C\CCCCCCCCCCCCCCCC)COP(=O)(O)OCCN [PE P- 18:0@_18:2]
TIMS collisional cross section (sample type: Human plasma, ion (formula + adduct): [C41H78NO7P-CH3] 1-): 269 Å²

CC/C=C\C/C=C\C/C=C\C/C=C\C/C=C\CCCC(=O)O[C@H](CO/C=C\CCCCCCCCCCCCCCCC)COP(=O)(O)OCCN [PE P- 18:0@_20:5]
TIMS collisional cross section (sample type: Mouse Liver, ion (formula + adduct): [C43H76NO7P-H] 1-): 274.5 Å²

CC/C=C\C/C=C\C/C=C\C/C=C\C/C=C\C/C=C\CCC(=O)O[C@H](CO/C=C\CCCCCCCCCCCCCCCC)COP(=O)(O)OCCN [PE P- 18:0@_22:6]
TIMS collisional cross section (sample type: Human plasma, ion (formula + adduct): [C45H78NO7P-CH3] 1-): 276.8 Å²

CCCCC/C=C\C/C=C\CCCCCCCC(=O)O[C@H](CO/C=C\CCCCCCCCCCCCCCCC)COP(=O)(O)OCCN [PE P- 18:0_18:2]
TIMS collisional cross section (sample type: Human plasma, ion (formula + adduct): [C41H78NO7P-H] 1-): 272.4 Å²

CCCCC/C=C\C/C=C\C/C=C\C/C=C\CCCCCC(=O)O[C@H](CO/C=C\CCCCCCCCCCCCCCCC)COP(=O)(O)OCCN [PE P- 18:0_22:4]
TIMS collisional cross section (sample type: Mouse Liver, ion (formula + adduct): [C45H82NO7P-H] 1-): 281.9 Å²

CC/C=C\C/C=C\C/C=C\C/C=C\C/C=C\C/C=C\CCC(=O)O[C@H](CO/C=C\CCCCCC/C=C\CCCCCCCC)COP(=O)(O)OCCN [PE P- 18:1@_22:6]
TIMS collisional cross section (sample type: Mouse Liver, ion (formula + adduct): [C45H76NO7P-H] 1-): 278.5 Å²

CCCCC/C=C\C/C=C\CCCCCCCC(=O)O[C@H](CO/C=C\CCCCCCCCCCCCCCCCCC)COP(=O)(O)OCCN [PE P- 20:0@_18:2]
TIMS collisional cross section (sample type: Human plasma, ion (formula + adduct): [C43H82NO7P-H] 1-): 278.6 Å²

CCCCCCCCC=CCCCCCCCC(=O)OC(COC(=O)CCCCCCCCCCCCCCC)COP(=O)(O)OCC(O)CO (centres undefined) [PG 16:0_18:1]
TIMS collisional cross section (sample type: Mouse Liver, ion (formula + adduct): [C40H77O10P-H] 1-): 275.7 Å²

CCCCC/C=C\C/C=C\CCCCCCCC(=O)O[C@H](COC(=O)CCCCCCCCCCCCCCC)COP(=O)(O)OC[C@@H](O)CO [PG 16:0_18:2]
TIMS collisional cross section [1]: 273.4 Å²

CC/C=C\C/C=C\C/C=C\C/C=C\C/C=C\C/C=C\CCC(=O)O[C@H](COC(=O)CCCCCCC/C=C\CCCCCCC)COP(=O)(O)OC[C@@H](O)CO [PG 17:1@_22:6]
TIMS collisional cross section (sample type: Human plasma, ion (formula + adduct): [C45H75O10P+OAcO] 1-): 294.7 Å²

CCCCCC/C=C\CCCCCCCC(=O)O[C@H](COC(=O)CCCCCCC/C=C\CCCCCCCC)COP(=O)(O)OC[C@@H](O)CO [PG 18:1_16:1]
TIMS collisional cross section [1]: 276.9 Å²

CC/C=C\C/C=C\C/C=C\C/C=C\C/C=C\C/C=C\CCC(=O)O[C@H](COC(=O)CCCCCCC/C=C\CCCCCCCC)COP(=O)(O)OC[C@@H](O)CO [PG 18:1_22:6@]
TIMS collisional cross section (sample type: Mouse Liver, ion (formula + adduct): [C46H77O10P-H] 1-): 288.6 Å²

CCCCC/C=C\C/C=C\CCCCCCCC(=O)OC[C@H](COP(=O)(O)OC[C@@H](O)CO)OC(=O)CCCCCCC/C=C\CCCCCCCC [PG 18:2_18:1]
TIMS collisional cross section (sample type: Mouse Liver, ion (formula + adduct): [C42H77O10P-H] 1-): 281.4 Å²

CC/C=C\C/C=C\C/C=C\C/C=C\C/C=C\C/C=C\CCC(=O)O[C@H](COC(=O)CCCCCCC/C=C\C/C=C\CCCCC)COP(=O)(O)OC[C@@H](O)CO [PG 18:2_22:6]
TIMS collisional cross section (sample type: Mouse Liver, ion (formula + adduct): [C46H75O10P-H] 1-): 287.5 Å²

CCCCC/C=C\C/C=C\C/C=C\C/C=C\CCCC(=O)OC[C@H](COP(=O)(O)OC[C@@H](O)CO)OC(=O)CCCCCCC/C=C\CCCCCCCC [PG 20:4_18:1@]
TIMS collisional cross section (sample type: Mouse Liver, ion (formula + adduct): [C44H77O10P-H] 1-): 285.3 Å²

CCCCC/C=C\C/C=C\C/C=C\C/C=C\CCCC(=O)OC[C@H](COP(=O)(O)OC[C@@H](O)CO)OC(=O)CCCCCCC/C=C\C/C=C\CCCCC [PG 20:4_18:2]
TIMS collisional cross section (sample type: Mouse Liver, ion (formula + adduct): [C44H75O10P-H] 1-): 284.1 Å²

CC/C=C\C/C=C\C/C=C\C/C=C\C/C=C\C/C=C\CCC(=O)O[C@H](COC(=O)CCC/C=C\C/C=C\C/C=C\C/C=C\CCCCC)COP(=O)(O)OC[C@@H](O)CO [PG 20:4_22:6]
TIMS collisional cross section (sample type: Mouse Liver, ion (formula + adduct): [C48H75O10P-H] 1-): 291.4 Å²

CC/C=C\C/C=C\C/C=C\C/C=C\C/C=C\C/C=C\CCC(=O)OC[C@H](COP(=O)(O)OC[C@@H](O)CO)OC(=O)CCCCCCC/C=C\CCCCCC [PG 22:6@_16:1]
TIMS collisional cross section (sample type: Mouse Liver, ion (formula + adduct): [C44H73O10P-H] 1-): 283 Å²

CC/C=C\C/C=C\C/C=C\C/C=C\C/C=C\C/C=C\CCC(=O)OC[C@H](COP(=O)(O)OC[C@@H](O)CO)OC(=O)CCCCC/C=C\C/C=C\C/C=C\C/C=C\CCCCC [PG 22:6@_22:4]
TIMS collisional cross section (sample type: Mouse Liver, ion (formula + adduct): [C50H79O10P-H] 1-): 297.7 Å²

CC/C=C\C/C=C\C/C=C\C/C=C\C/C=C\C/C=C\CCC(=O)OC[C@H](COP(=O)(O)OC[C@@H](O)CO)OC(=O)CC/C=C\C/C=C\C/C=C\C/C=C\C/C=C\C/C=C\CC [PG 22:6_22:6]
TIMS collisional cross section (sample type: Mouse Liver, ion (formula + adduct): [C50H75O10P-H] 1-): 294.8 Å²

CCCC/C=C\CCCCCCCC(=O)OCC(COP(=O)(O)OC1C(O)C(O)C(O)C(O)C1O)OC(=O)CCCCCCC/C=C\C/C=C\CCCCC (centres undefined) [PI 14:1@_18:2]
TIMS collisional cross section (sample type: Human plasma, ion (formula + adduct): [C41H73O13P+AcO] 1-): 287.2 Å²

CCCCCC/C=C\CCCCCCCC(=O)OC[C@H](COP(=O)(O)OC1C(O)C(O)C(O)[C@@H](O)C1O)OC(=O)CCCCCCCCCCCCCCC (some centres undefined) [PI 16:1_16:0@]
TIMS collisional cross section (sample type: Human plasma, ion (formula + adduct): [C41H77O13P-H] 1-): 282.6 Å²

CCCCC/C=C\C/C=C\C/C=C\C/C=C\CCCC(=O)O[C@H](COC(=O)CCCCCCCCCCCCCCCCC)COP(=O)(O)OC1C(O)C(O)C(O)[C@@H](O)C1O (some centres undefined) [PI 18:0_20:4@]
TIMS collisional cross section [2]: 298.1 Å²

CCCCC/C=C\C/C=C\C/C=C\C/C=C\CCCC(=O)O[C@H](COC(=O)CCCCCCCCCCCCCCCCC)COP(=O)(O)OC1C(O)C(O)C(O)[C@@H](O)C1O (some centres undefined) [PI 18:0_20:4]
TIMS collisional cross section [2]: 297.6 Å²
TIMS collisional cross section (sample type: Mouse Liver, ion (formula + adduct): [C47H83O13P-H] 1-): 297.6 Å²

CCCCCCCC/C=C\CCCCCCCC(=O)OCC(COP(=O)(O)OC1C(O)C(O)C(O)C(O)C1O)OC(=O)CCCCCCC/C=C\CCCCCCCCC (centres undefined) [PI 18:1_19:1]
TIMS collisional cross section (sample type: Human plasma, ion (formula + adduct): [C46H85O13P-CH3] 1-): 293.6 Å²

CC/C=C\C/C=C\C/C=C\C/C=C\C/C=C\C/C=C\CCC(=O)O[C@H](COC(=O)CCCCCCC/C=C\CCCCCCCC)COP(=O)(O)OC1C(O)C(O)C(O)[C@@H](O)C1O (some centres undefined) [PI 18:1_22:6@]
TIMS collisional cross section (sample type: Mouse Liver, ion (formula + adduct): [C49H81O13P-H] 1-): 299.8 Å²

CCCCC/C=C\C/C=C\CCCCCCCC(=O)OC[C@H](COP(=O)(O)OC1[C@H](O)[C@H](O)C(O)[C@H](O)[C@H]1O)OC(=O)CCCCCCC/C=C\CCCCCCCC (some centres undefined) [PI 18:2_18:1]
TIMS collisional cross section (sample type: Human plasma, ion (formula + adduct): [C45H81O13P-H] 1-): 292.5 Å²
TIMS collisional cross section (sample type: Mouse Liver, ion (formula + adduct): [C45H81O13P-H] 1-): 291.9 Å²

CCCCC/C=C\C/C=C\CCCCCCCC(=O)OC[C@H](COP(=O)(O)OC1C(O)C(O)C(O)[C@@H](O)C1O)OC(=O)CCCCCCC/C=C\C/C=C\CCCCC (some centres undefined) [PI 18:2_18:2]
TIMS collisional cross section (sample type: Mouse Liver, ion (formula + adduct): [C45H79O13P-H] 1-): 290.2 Å²
